CC(C)(Oc1ccc(CCNC(=O)c2ccc(Cl)cc2)cc1)C(=O)O
solubility (mole fraction)
Details	283.15 K	288.15 K	293.15 K	298.15 K	303.15 K	308.15 K	313.15 K	318.15 K	323.15 K
in ethanol	0.00223	0.00271	0.00332	0.00402	0.00482	0.00571	0.00689	0.00815	0.00977
in isopropanol	0.00152	0.00189	0.00237	0.00307	0.00384	0.00476	0.00563	0.00689	0.00832
in methanol	0.0019	0.00228	0.00283	0.00343	0.0043	0.00526	0.00648	0.00791	0.00948
in n-propanol	0.00246	0.00297	0.00361	0.00437	0.00524	0.00631	0.00743	0.0088	0.0101
in water	1.23e-06	1.58e-06	2.01e-06	2.56e-06	3.29e-06	4.13e-06	5.13e-06	6.3e-06	7.83e-06
